Experimental data taken from patent US7709498B2, “Quinoline derivatives as antibacterial agents” (Janssen Pharmaceutica N.V., priority 2005, dated 2010).
≈ marks a conversion by molar mass, not a printed value.

Assays:
Assay type in all cases: cell-based
[1] = system: Enterococcus faecalis (ATCC29212); experiment: Microtitre plate assay, IC90 determination, EFA 29212; conditions: 90% inhibitory concentration for bacterial growth, 37° C., resazurin fluorescence; for IC90: Enterococcus faecalis, ATCC29212, 24 h, read-out: IC90 (μg/ml) EFA 29212
Method: (§1) The bacteria used in this study were grown overnight in flasks containing 100 ml Mueller-Hinton Broth (Becton Dickinson—cat. no. 275730) in sterile de-ionized water, with shaking, at 37° C. Stocks (0.5 ml/tube) were stored at −70° C. until use. Bacteria titrations were performed in microtiter plates to detect the TCID50, in which the TCID50 represents the dilution that gives rise to bacterial growth in 50% of inoculated cultures.
(§2) In general, an inoculum level of approximately 100 TCID50 was used for susceptibility testing.
(§3) Flat-bottom, sterile 96-well plastic microtiter plates were filled with 180 μl of sterile deionized water, supplemented with 0.25% BSA. Subsequently, stock solutions (7.8× final test concentration) of compounds were added in 45 μl volumes in column 2. Serial five-fold dilutions (45 μl in 180 μl) were made directly in the microtiter plates from column 2 to reach column 11. Untreated control samples with (column 1) and without (column 12) inoculum were included in each microtiter plate. Depending on the bacteria type, approximately 10 to 60 CFU per well of bacteria inoculum (100 TCID50), in a volume of 100 μl in 2.8× Mueller-Hinton broth medium, was added to the rows A to H, except column 12. The same volume of broth medium without inoculum was added to column 12 in row A to H. The cultures were incubated at 37° C. for 24 hours under a normal atmosphere (incubator with open air valve and continuous ventilation). At the end of incubation, one day after inoculation, the bacterial growth was quantitated fluorometrically. Therefore resazurin (0.6 mg/ml) was added in a volume of 20 μl to all wells 3 hours after inoculation, and the plates were re-incubated overnight. A change in colour from blue to pink indicated the growth of bacteria. The fluorescence was read in a computer-controlled fluorometer (Cytofluor Biosearch) at an excitation wavelength of 530 nm and an emission wavelength of 590 nm. The % growth inhibition achieved by the compounds was calculated according to standard methods. The IC90 (expressed in μg/ml) was defined as the 90% inhibitory concentration for bacterial growth.
(§4) BSU 3639 means Bacillus subtilis (ATCC43639); ECO 25922 means Escherichia coli (ATCC25922); EFA 14506 means Enterococcus faecalis (ATCC14506); EFA 29212 means Enterococcus faecalis (ATCC29212); LMO 49594 means Listeria monocytogenes (ATCC49594); PAE 27853 means Pseudomonas aeruginosa (ATCC27853); SMU 33402 means Streptococcus mutans (ATCC33402); SPN 6305 means Streptococcus pneumoniae (ATCC6305); SPY 8668 means Streptococcus pyogens (ATCC8668); STA 43300 means Staphylococcus aureus (ATCC43300); STA 25923 means Staphylococcus aureus (ATCC25923); STA 29213 means Staphylococcus aureus (ATCC29213); STA RMETH means methicilline resistant Staphylococcus aureus (MRSA) (a clinical isolate from the University of Antwerp). ATCC means American type tissue culture.

[2] = system: Streptococcus pneumoniae (ATCC6305); experiment: Microtitre plate assay, IC90 determination, SPN 6305; conditions: 90% inhibitory concentration for bacterial growth, 37° C., resazurin fluorescence; for IC90 (μg/ml) SPN 6305: 24 hours; for IC90: Streptococcus pneumoniae, ATCC6305, 24 h, read-out: IC90 (μg/ml) SPN 6305
Method: as §1, §2, §3, §4

[3] = system: Bacillus subtilis (ATCC43639); experiment: Microtitre plate assay, IC90 determination, BSU 43639; conditions: Bacillus subtilis, ATCC43639, 24 h, 90% inhibitory concentration for bacterial growth, 37° C., resazurin fluorescence, read-out: IC90 (μg/ml) BSU 43639
Method: as §1, §2, §3, §4

[4] = system: Streptococcus pyogens (ATCC8668); experiment: Microtitre plate assay, IC90 determination, SPY 8668; conditions: 90% inhibitory concentration for bacterial growth, 37° C., resazurin fluorescence; for IC90: Streptococcus, ATCC8668, 24 h, read-out: IC90 (μg/ml) SPY 8668; for IC90 (μg/ml) SPY 8668: 24 hours
Method: as §1, §2, §3, §4

[5] = system: Staphylococcus aureus (ATCC43300); experiment: Microtitre plate assay, IC90 determination, STA 43300; conditions: 90% inhibitory concentration for bacterial growth, 37° C., resazurin fluorescence; for IC90: Staphylococcus aureus, ATCC43300, 24 h, read-out: IC90 (μg/ml) STA 43300
Method: as §1, §2, §3, §4

[6] = system: Streptococcus mutans (ATCC33402); experiment: Microtitre plate assay, IC90 determination, SMU 33402; conditions: Streptococcus mutans, ATCC33402, 24 h, 90% inhibitory concentration for bacterial growth, 37° C., resazurin fluorescence, read-out: IC90 (μg/ml) SMU 33402
Method: as §1, §2, §3, §4

[7] = system: Listeria monocytogenes (ATCC49594); experiment: Microtitre plate assay, IC90 determination, LMO 49594; conditions: 90% inhibitory concentration for bacterial growth, 37° C., resazurin fluorescence; for IC90: Listeria monocytogenes, ATCC49594, 24 h, read-out: IC90 (μg/ml) LMO 49594; for IC90 (μg/ml) LMO 49594: 24 hours
Method: as §1, §2, §3, §4

[8] = system: Pseudomonas aeruginosa (ATCC27853); experiment: Microtitre plate assay, IC90 determination, PAE 27853; conditions: 90% inhibitory concentration for bacterial growth, 37° C., resazurin fluorescence; for IC90: Pseudomonas aeruginosa, ATCC27853, 24 h, read-out: IC90 (μg/ml) PAE 27853
Method: as §1, §2, §3, §4

[9] = system: Staphylococcus aureus (ATCC25923); experiment: Microtitre plate assay, IC90 determination, STA 25923; conditions: 90% inhibitory concentration for bacterial growth, 37° C., resazurin fluorescence; for IC90: Staphylococcus aureus, ATCC25923, 24 h, read-out: IC90 (μg/ml) STA 25923
Method: as §1, §2, §3, §4

[10] = system: Enterococcus faecalis (ATCC14506); experiment: Microtitre plate assay, IC90 determination, EFA 14506; conditions: Enterococcus faecalis, ATCC14506, 24 h, 90% inhibitory concentration for bacterial growth, 37° C., resazurin fluorescence, read-out: IC90 (μg/ml) EFA 14506
Method: as §1, §2, §3, §4

Row | Compound | IC90 [1] | IC90 [3] | IC90 [6] | IC90 [7] | IC90 [8] | IC90 [2] | other results
1 | COc1nc2ccc(Br)cc2cc1C(c1ccc(Cl)cc1)C(O)(CCN(C)C)c1ccccc1 (centres unmarked) [Compound 36] | 4.8 µg/mL (≈ 8.89 µM) | 24.1 µg/mL (≈ 44.6 µM) | 3.8 µg/mL (≈ 7.04 µM) | 5.4 µg/mL (≈ 10 µM) | 4.8 µg/mL (≈ 8.89 µM) |  | IC90 (μg/ml) SPN 6305 [2]: 2.7 µg/mL (≈ 5 µM); IC90 [4]: 0.4 µg/mL (≈ 0.741 µM); IC90 [5]: 4.8 µg/mL (≈ 8.89 µM)
2 | COc1nc2ccc(Br)cc2cc1C(c1ccccc1)C(O)(CCN(C)C)c1cccc(F)c1 (centres unmarked) [Compound 39] |  |  | 11.7 µg/mL (≈ 22.4 µM) |  |  |  | IC90 (μg/ml) EFA 29212 ([1]; 24 hours): 10.4 µg/mL (≈ 19.9 µM); IC90 (μg/ml) SPN 6305 [2]: 5.9 µg/mL (≈ 11.3 µM); IC90 (μg/ml) STA 25923 ([9]; 24 hours): 10.4 µg/mL (≈ 19.9 µM); IC90 (μg/ml) SPY 8668 [4]: 1.9 µg/mL (≈ 3.63 µM); IC90 (μg/ml) STA 43300 ([5]; 24 hours): 13.1 µg/mL (≈ 25 µM); IC90 (μg/ml) LMO 49594 [7]: 4.7 µg/mL (≈ 8.98 µM); IC90 (μg/ml) PAE 27853 ([8]; 24 hours): 10.4 µg/mL (≈ 19.9 µM)
3 | COc1nc2ccc(Br)cc2cc1C(c1ccccc1)C(O)(CCN)c1ccccc1 (centres unmarked) [Compound 44] |  | 7.6 µg/mL (≈ 15.9 µM) |  |  |  |  | IC90 [9]: 7.6 µg/mL (≈ 15.9 µM)
4 | COc1nc2ccc(Br)cc2cc1C(c1ccccc1)C(O)(CCN(C)C)c1ccc2ccccc2c1 (centres unmarked) [Compound 46] | 5 µg/mL (≈ 9 µM) |  | 5.6 µg/mL (≈ 10.1 µM) | 2.8 µg/mL (≈ 5.04 µM) | 5 µg/mL (≈ 9 µM) | 2.8 µg/mL (≈ 5.04 µM) | IC90 [4]: 0.6 µg/mL (≈ 1.08 µM); IC90 [5]: 5.6 µg/mL (≈ 10.1 µM)
5 | COc1nc2ccc(Br)cc2cc1C(c1ccccc1)C(O)(CCN1CCCCC1)c1ccccc1 (centres unmarked) [Compound 48] |  |  | 10.9 µg/mL (≈ 20 µM) | 10.9 µg/mL (≈ 20 µM) | 10.9 µg/mL (≈ 20 µM) | 13.7 µg/mL (≈ 25.1 µM) | IC90 [4]: 13.7 µg/mL (≈ 25.1 µM)
6 | COc1nc2ccc(Br)cc2cc1C(c1ccccc1)C(O)(CCN(C)C)c1ccccc1F (centres unmarked) [Compound 69] |  |  |  | 10.4 µg/mL (≈ 19.9 µM) | 10.4 µg/mL (≈ 19.9 µM) | 13.1 µg/mL (≈ 25 µM) | 
7 | COc1nc2ccc(Br)cc2cc1C(c1ccccc1)C(O)(CCN(C)C)c1ccc2c(c1)OCO2 (centres unmarked) [Compound 76] |  |  |  | 11 µg/mL (≈ 20 µM) | 11 µg/mL (≈ 20 µM) |  | 
8 | COc1nc2ccc(Br)cc2cc1C(c1ccccc1)C(O)(CCN(C)C)c1ccc2c(c1)OCCO2 (centres unmarked) [Compound 77] |  |  |  |  | 11.2 µg/mL (≈ 19.9 µM) | 14.2 µg/mL (≈ 25.2 µM) | 
9 | COc1nc2ccc(Br)cc2cc1C(c1ccccc1)C(O)(CCN(C)C)c1cccc(F)c1 (centres unmarked) [Compound 109] | 11.7 µg/mL (≈ 22.4 µM) |  |  |  | 11.7 µg/mL (≈ 22.4 µM) |  | IC90 (μg/ml) SPN 6305 [2]: 13.1 µg/mL (≈ 25 µM); IC90 [9]: 10.4 µg/mL (≈ 19.9 µM); IC90 (μg/ml) SPY 8668 [4]: 13.1 µg/mL (≈ 25 µM); IC90 [5]: 13.1 µg/mL (≈ 25 µM); IC90 (μg/ml) LMO 49594 [7]: 9.3 µg/mL (≈ 17.8 µM)
10 | COc1nc2ccc(Br)cc2cc1C(c1ccccc1)C(O)(CCN1CCCCC1)c1ccc2cc(Br)ccc2c1 (centres unmarked) [Compound 155] |  |  |  |  |  |  | IC90 [10]: 26.9 µg/mL (≈ 39.9 µM)
11 | COc1nc2ccc(Br)cc2cc1C(c1ccccc1)C(O)(CCN(C)C)C1CCN(C(=O)c2ccccc2)CC1 (centres unmarked) [Compound 201] | 12.3 µg/mL (≈ 19.9 µM) | 12.3 µg/mL (≈ 19.9 µM) |  | 12.3 µg/mL (≈ 19.9 µM) | 12.3 µg/mL (≈ 19.9 µM) |  | 
12 | COc1nc2ccc(-c3ccc(CO)o3)cc2cc1C(c1ccccc1)C(O)(CCN(C)C)c1cccc2ccccc12 (centres unmarked) [Compound 212] |  | 11.4 µg/mL (≈ 19.9 µM) |  |  |  |  | 
13 | COc1nc2ccc(-c3cccnc3)cc2cc1C(c1ccccc1)C(O)(CCN(C)C)c1cc(F)cc(F)c1 (centres unmarked) [Compound G] | 10.8 µg/mL (≈ 20 µM) | 13.6 µg/mL (≈ 25.2 µM) |  | 10.8 µg/mL (≈ 20 µM) |  |  | 
